In ChEMBL document CHEMBL4828744, “Design, synthesis and biological evaluation of pyridinylmethylenepiperidine derivatives as potent 5-HT1F receptor agonists for migraine therapy” (Eur J Med Chem, 2021):
Calls of active or inactive are those of the source. The calls are words filed in the database; no cut-off is given here.

How the values were obtained:
[1] = biological target: 5-hydroxytryptamine receptor 1B (Homo sapiens, UniProt P28222); test: Binding affinity to human 5HT1B receptor
[2] = Clearance in Sprague-Dawley rat at 1 mg/kg, iv measured for 24 hrs by LC-MS/MS analysis; format: ADME, organism-based; conditions: in vivo
[3] = AUC (0 to 24hrs) in monkey at 25 mg/kg, ig by LC-MS/MS analysis; format: ADME, organism-based, Macaca mulatta; parameters: time < 24 hr, route intragastric, dose 25 mg/kg; conditions: rhesus monkey, in vivo, po
[4] = biological target: T1, 5-hydroxytryptamine receptor 3A (Homo sapiens, UniProt P46098); test: Binding affinity to human 5HT3 receptor
T1 sequence (P46098 whole entry): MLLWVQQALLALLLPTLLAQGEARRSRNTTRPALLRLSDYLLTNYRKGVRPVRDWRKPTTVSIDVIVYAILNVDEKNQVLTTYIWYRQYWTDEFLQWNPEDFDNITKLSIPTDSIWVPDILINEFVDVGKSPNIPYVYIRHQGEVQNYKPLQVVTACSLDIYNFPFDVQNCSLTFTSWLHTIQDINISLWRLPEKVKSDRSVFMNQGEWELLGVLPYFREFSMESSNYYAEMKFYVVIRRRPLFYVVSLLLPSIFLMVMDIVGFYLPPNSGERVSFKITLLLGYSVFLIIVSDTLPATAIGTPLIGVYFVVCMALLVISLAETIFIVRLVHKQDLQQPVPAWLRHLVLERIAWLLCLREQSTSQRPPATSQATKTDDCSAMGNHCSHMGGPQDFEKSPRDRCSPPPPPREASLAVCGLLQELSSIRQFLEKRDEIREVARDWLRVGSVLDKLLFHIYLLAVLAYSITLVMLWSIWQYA

[5] = tested on: Rattus norvegicus; test: Antimigraine activity against electrical stimulation of trigeminal ganglion migraine Wistar rat model assessed as reduction in dural plasma protein extravasation at 0.01 to 0.1 ug/kg, po measured after 45 mins by confocal fluorescence microscopic analysis; format: functional, organism-based; conditions: dose 0.01-0.1 µg/kg
[6] = Half life in Sprague-Dawley rat at 5 mg/kg, ig measured for 24 hrs by LC-MS/MS analysis; format: ADME, organism-based; conditions: in vivo, po
[7] = organism: Homo sapiens; test: Selectivity ratio of IC50 for human 5HT2B receptor to IC50 for human 5HT1F receptor
[8] = Toxicity in NewZealand rabbit Saphenous vein rings assessed as induction of vasoconstriction at 0.01 to 100 uM; format: tissue-based, Oryctolagus cuniculus; conditions: dose 0.01-100 µM
[9] = biological target: T2, 5-hydroxytryptamine receptor 2C (Homo sapiens, UniProt P28335); test: Binding affinity to human 5HT2C receptor
T2 sequence (P28335 whole entry): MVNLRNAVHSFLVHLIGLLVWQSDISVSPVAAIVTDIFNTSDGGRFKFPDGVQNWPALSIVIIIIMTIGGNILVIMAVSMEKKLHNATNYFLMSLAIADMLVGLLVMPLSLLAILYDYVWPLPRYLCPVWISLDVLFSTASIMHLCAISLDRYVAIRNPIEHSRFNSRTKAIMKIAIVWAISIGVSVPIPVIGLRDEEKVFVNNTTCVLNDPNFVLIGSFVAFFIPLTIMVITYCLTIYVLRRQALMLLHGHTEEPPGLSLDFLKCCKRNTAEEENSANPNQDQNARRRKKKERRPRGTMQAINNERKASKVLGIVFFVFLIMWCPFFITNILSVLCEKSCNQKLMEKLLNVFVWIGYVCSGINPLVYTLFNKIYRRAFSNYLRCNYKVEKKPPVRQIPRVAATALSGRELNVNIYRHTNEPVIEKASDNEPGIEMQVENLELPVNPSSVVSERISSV

[10] = biological target: 5-hydroxytryptamine receptor 2B (Homo sapiens, UniProt P41595); test: Binding affinity to human 5HT2B receptor
Chain of 5-hydroxytryptamine receptor 2B (P41595 whole entry): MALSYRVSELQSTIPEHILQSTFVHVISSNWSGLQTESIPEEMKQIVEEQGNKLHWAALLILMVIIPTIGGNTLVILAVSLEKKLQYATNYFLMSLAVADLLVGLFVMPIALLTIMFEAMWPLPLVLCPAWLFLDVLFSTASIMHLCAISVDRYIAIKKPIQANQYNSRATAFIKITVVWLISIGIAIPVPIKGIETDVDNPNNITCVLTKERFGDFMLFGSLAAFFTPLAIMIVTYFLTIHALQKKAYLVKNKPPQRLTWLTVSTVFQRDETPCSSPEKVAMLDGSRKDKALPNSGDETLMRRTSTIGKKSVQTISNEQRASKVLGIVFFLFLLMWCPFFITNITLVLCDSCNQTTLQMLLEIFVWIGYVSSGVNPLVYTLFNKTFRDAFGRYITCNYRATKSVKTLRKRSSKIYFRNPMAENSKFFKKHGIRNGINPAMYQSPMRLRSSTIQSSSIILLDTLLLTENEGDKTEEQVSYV

[11] = AUC(0 to t) in Sprague-Dawley rat at 5 mg/kg, ig measured for 24 hrs by LC-MS/MS analysis; format: ADME, organism-based; parameters: time 24 hrs, dose 5 mg/kg; conditions: in vivo, po
[12] = AUC (0 to 24hrs) in monkey at 1 mg/kg, ig by LC-MS/MS analysis; format: ADME, organism-based, Macaca mulatta; parameters: time < 24 hr, route intragastric, dose 1 mg/kg; conditions: rhesus monkey, in vivo, po
[13] = Cmax in Sprague-Dawley rat at 1 mg/kg, iv measured for 24 hrs by LC-MS/MS analysis; format: ADME, organism-based; parameters: route intravenous, dose 1 mg/kg, time 24 hrs; conditions: in vivo
[14] = Toxicity in Sprague-Dawley rat assessed as effect on body weight at 150 mg/kg/day, ig administered for 28 days; format: organism-based; conditions: in vivo, po, 672 h, time 28 day
[15] = biological target: 5-HT1A/5-HT1F (Homo sapiens) (UniProt P30939+P08908); test: Selectivity ratio of IC50 for human 5HT1A receptor to IC50 for human 5HT1F receptor; format: protein assay
Chain of 5-HT1A/5-HT1F (Homo sapiens) (P08908 whole entry, looked up, one chain of several): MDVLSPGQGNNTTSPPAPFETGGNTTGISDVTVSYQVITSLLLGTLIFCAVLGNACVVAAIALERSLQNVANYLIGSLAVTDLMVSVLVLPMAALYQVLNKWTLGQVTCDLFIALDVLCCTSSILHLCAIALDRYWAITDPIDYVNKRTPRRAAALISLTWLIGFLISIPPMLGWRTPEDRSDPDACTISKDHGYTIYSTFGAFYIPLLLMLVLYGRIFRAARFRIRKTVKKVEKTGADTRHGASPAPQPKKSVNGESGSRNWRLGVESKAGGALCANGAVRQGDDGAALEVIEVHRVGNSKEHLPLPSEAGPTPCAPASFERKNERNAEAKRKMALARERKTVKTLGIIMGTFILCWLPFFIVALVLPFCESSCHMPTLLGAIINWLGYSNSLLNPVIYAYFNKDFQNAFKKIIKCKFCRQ

[16] = Volume of distribution at steady state in Sprague-Dawley rat at 1 mg/kg, iv measured for 24 hrs by LC-MS/MS analysis; format: ADME, organism-based; conditions: in vivo, read-out: Vdss
[17] = organism: Homo sapiens; test: Selectivity ratio of IC50 for human 5HT2A receptor to IC50 for human 5HT1F receptor
[18] = biological target: T3, 5-hydroxytryptamine receptor 1F (Homo sapiens, UniProt P30939); test: Agonist activity at 5HT1F receptor (unknown origin) expressed in HEK293 cells measured after 60 mins by Fluo-4AM dye based FLIPR assay; format: functional, cell-based; conditions: read-out: IC50 (the source's name)
T3 sequence (P30939 whole entry): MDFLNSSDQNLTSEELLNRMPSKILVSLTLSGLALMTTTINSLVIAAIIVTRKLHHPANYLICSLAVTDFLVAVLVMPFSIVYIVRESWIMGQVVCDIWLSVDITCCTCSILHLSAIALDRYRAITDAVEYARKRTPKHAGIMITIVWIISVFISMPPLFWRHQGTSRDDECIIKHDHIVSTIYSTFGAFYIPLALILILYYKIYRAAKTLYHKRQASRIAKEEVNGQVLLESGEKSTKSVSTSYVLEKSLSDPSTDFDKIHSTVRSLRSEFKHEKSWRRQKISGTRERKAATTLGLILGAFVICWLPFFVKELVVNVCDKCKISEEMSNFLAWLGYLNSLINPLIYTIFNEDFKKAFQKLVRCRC

[19] = organism: Homo sapiens; test: Selectivity ratio of IC50 for human 5HT2C receptor to IC50 for human 5HT1F receptor
[20] = Cmax in monkey at 25 mg/kg, ig administered for 28 days by LC-MS/MS analysis; format: ADME, organism-based, Macaca mulatta; parameters: route intragastric, dose 25 mg/kg, time 28 day; conditions: rhesus monkey, in vivo, po
[21] = biological target: 5-hydroxytryptamine receptor 2A (Homo sapiens, UniProt P28223); test: Binding affinity to human 5HT2A receptor
Chain of 5-hydroxytryptamine receptor 2A (P28223 whole entry): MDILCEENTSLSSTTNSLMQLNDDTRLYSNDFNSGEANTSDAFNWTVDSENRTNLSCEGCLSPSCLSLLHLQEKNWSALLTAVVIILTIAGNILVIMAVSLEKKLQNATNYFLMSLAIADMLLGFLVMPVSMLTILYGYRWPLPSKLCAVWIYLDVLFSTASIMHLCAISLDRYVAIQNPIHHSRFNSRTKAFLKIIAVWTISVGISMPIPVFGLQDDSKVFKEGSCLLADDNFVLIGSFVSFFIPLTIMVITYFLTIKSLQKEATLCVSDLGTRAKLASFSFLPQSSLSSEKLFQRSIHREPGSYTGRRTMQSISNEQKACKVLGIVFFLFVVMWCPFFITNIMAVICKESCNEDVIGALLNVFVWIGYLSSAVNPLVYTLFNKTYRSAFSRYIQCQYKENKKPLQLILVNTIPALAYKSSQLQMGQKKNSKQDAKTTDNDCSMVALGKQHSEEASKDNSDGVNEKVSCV

[22] = AUC (0 to 24hrs) in monkey at 5 mg/kg, ig by LC-MS/MS analysis; format: ADME, organism-based, Macaca mulatta; parameters: time < 24 hr, route intragastric, dose 5 mg/kg; conditions: rhesus monkey, in vivo, po
[23] = AUC (0 to 24hrs) in Sprague-Dawley rat at 15 mg/kg, ig by LC-MS/MS analysis; format: ADME, organism-based; parameters: time < 24 hr, route intragastric, dose 15 mg/kg; conditions: in vivo, po
[24] = Toxicity in ig dosed Sprague-Dawley rat administered for 28 days; format: organism-based; conditions: in vivo, po, time 28 day
[25] = Cmax in monkey at 1 mg/kg, ig administered for 28 days by LC-MS/MS analysis; format: ADME, organism-based, Macaca mulatta; parameters: route intragastric, dose 1 mg/kg, time 28 day; conditions: rhesus monkey, in vivo, po
[26] = Toxicity in Sprague-Dawley rat assessed as effect on food intake at 150 mg/kg/day, ig administered for 28 days; format: organism-based; conditions: in vivo, po, 672 h, time 28 day
[27] = Cmax in Sprague-Dawley rat at 150 mg/kg, ig administered for 28 days by LC-MS/MS analysis; format: ADME, organism-based; parameters: route intragastric, dose 150 mg/kg, time 28 day; conditions: in vivo, po

Chain of 5-hydroxytryptamine receptor 1B (P28222 whole entry): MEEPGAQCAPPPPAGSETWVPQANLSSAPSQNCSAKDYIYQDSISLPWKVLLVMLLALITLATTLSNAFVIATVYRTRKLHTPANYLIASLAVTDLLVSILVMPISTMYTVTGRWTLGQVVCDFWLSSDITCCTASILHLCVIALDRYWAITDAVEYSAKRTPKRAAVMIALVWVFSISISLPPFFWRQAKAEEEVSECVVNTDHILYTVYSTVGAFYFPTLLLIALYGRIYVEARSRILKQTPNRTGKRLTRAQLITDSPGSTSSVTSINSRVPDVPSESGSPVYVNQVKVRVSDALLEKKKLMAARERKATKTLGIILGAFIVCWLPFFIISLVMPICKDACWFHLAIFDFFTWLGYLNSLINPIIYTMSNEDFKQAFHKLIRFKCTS

IC50 [1]: 2.16 µM
clearance [2]: 127 mL/min/kg
AUC(0-t) at 24 h [3]: 67400 ng·h/mL
IC50 [4]: > 10 µM
half-life [6]: 2.95 h
Ratio IC50 [7]: > 10000
IC50 [9]: 7.06 µM
IC50 [10]: 8.61 µM
AUC(0-t) at 24 h [11]: 404 ng·h/mL
AUC(0-t) at 24 h [12]: 3200 ng·h/mL
Cmax [13]: 110 ng/mL
Ratio IC50 [15]: 472
Vd [16]: 12.8 L/kg
Ratio IC50 [17]: > 10000
EC50 [18]: 0.0196 µM
Ratio IC50 [19]: > 10000
Cmax [20]: 3630 ng/mL
IC50 [21]: 4.87 µM
AUC(0-t) at 24 h [22]: 45200 ng·h/mL
AUC(0-t) at 24 h [23]: 849 ng·h/mL
Cmax [25]: 764 ng/mL
Cmax [27]: 841 ng/mL
Compound: CN1CCC(=C(F)c2cccc(NC(=O)c3c(F)cc(F)cc3F)n2)CC1
Activity [5]: Active
Activity [8]: Non-Toxic
Activity [14]: Non-Toxic
NOAEL at 672 h [24]: 50 mg/kg/day
Activity [26]: Non-Toxic
